# According to patent US20120202814A1, “COMPOUNDS WITH DDX3 INHIBITORY ACTIVITY AND USES THEREOF” (UNIVERSITÀ DEGLI STUDI DI SIENA, priority 2009, published 2012):
# Read-outs that look alike come from different tables or passages of the source.
# Columns and labels:
# HIV-1 = assay: Antiviral assay, HIV-1 replication in infected PBMCs (viral RNA in supernatant); format: cell-based; conditions: for EC50: Human immunodeficiency virus 1, PBMC
# Procedure: (§1) FIG. 1. A) Antiviral activity (expressed as % of viral load with respect to the control) of compounds FE56 and FE66 at 0.3 μM and 3 μM doses against single round HIV-1 replication in HeLaCD4+ cells infected with a wild type HIV-1 strain. Measurements were performed at 72 h post infection. B) Antiviral activity of compounds FE15 and FE66 on HIV-1 replication in phytohemagglutinin-stimulated peripheral blood mononuclear cells (PBMCs) […] with HeLa CD4^+-cell culture supernatants containing wild type HIV. Compounds were tested at 50 μM (FE15) and 5 μM (FE66). The HIV-1 RNA was quantified in the cell culture supernatant after 3, and 5 days of incubation. Results are expressed as HIV RNA copies/ml. Control (white bars).
# FIG. 2. Antiviral activity of DDX3 inhibitors. A) Comparison of the antiviral activity (expressed as % of viral RNA with respect to the control) on infected PBMCs of a fixed dose of selected inhibitors. Measurements were performed at 72 h post infection. Values are the means of three independent replicates. Error bars are ±SD. White bars: control without drugs; dark grey bar: positive control with AZT (0.01 μM); black bar: first generation inhibitor FE15 (50 μM); light grey bars: second generation DDX3 inhibitors FE66, 11d and 38 (3 μM). B) Dose-response curves for the inhibiton of HIV-1 replication (expressed as % of viral RNA with respect to the control) in infected PBMCs by FE15 (circles) and 38 (triangles). Measurements were performed at 72 h post infection. Values are the means of three independent replicates. Error bars are ±SD.
# In detail, 0.5 μg of each HIV-1 plasmid construct was transfected into CD4 HeLa cells by using the lipofectin reagent, according to the recommendations of the manufacturer (Invitrogen, Groningen, The Netherlands). After 3 days of incubation at 37° C., the cell supernatants, which contained reconstituted viable recombinant viruses, were collected. Quantification of the newly produced recombinant strains was obtained by determination of the HIV RNA copy number in the cell culture supernatants. Successively, 10 ml of transfected HeLa CD4^+-cell culture supernatants containing wild-type, and mutated recombinant HIV strain […], was used to infect aliquots of 10×10^6 phytohemagglutinin-stimulated peripheral blood mononuclear cells (PBMCs) from HIV-seronegative blood donors. After 4 h of incubation, supernatants were removed and infected PBMCs were incubated at 37° C. in 10 ml of RPMI 1640 medium (Eurobio, Les Ulis Cedex B, France) supplemented with 20% fetal calf serum (Life Technologies, Ltd., Paisley, Scotland), 2 mM l-glutamine, 100 U of penicillin per ml, 100 μg of streptomycin per ml, 10% interleukin-2 (ZeptoMetrix Co., Buffalo, N.Y.), 5 μg of hydrocortisone (Sigma Chemical Co.) per ml and with fourfold dilutions of antiretroviral drugs. No-drug controls for each drug dilution were included in each assay. After 3, 5 and 7 days of incubation the HIV-1 RNA in the cell culture supernatant was quantified. Recombinant HIV-1 strains from treatment-naive patients and multidrug resistance-associated changes were assayed in parallel. The degree of inhibition of viral replication was measured by determining the HIV-1 RNA level in the supernatants of cell cultures and was expressed as the fold increase in the 50% inhibitory concentrations (IC50s) for resistant recombinant HIV-1 variants compared with the IC50s for the wild-type recombinant variant. Each test was performed in triplicate.
# [1] = system: cervical cancer HeLa cell line; assay: Antiproliferative activity against HeLa cells (CellTiter viability assay); format: cell-based; conditions: Homo sapiens
# Procedure: (§2) Selected compounds from Table 1 were tested against the cervical cancer HeLa cell line for antiproliferative activity. Cell viability was measured with the CellTiter viability assay (Table 2). Table 3 lists the calculated antiproliferative potencies (EC50, dose required to suppress 50% of cell viability) for a series of representative compounds of the invention.
# wild type HIV-1 strain = assay: HIV-1 single round replication in HeLaCD4+ cells; format: cell-based; conditions: wild type HIV-1, 0.3 μM and 3 μM doses, 72 h post infection
# Procedure: as §1
# Selected compounds from Table 1 were tested against HIV-1 replication in two different model systems.
# [2] = molecular target: T1, human DDX3 (ATPase activity) (Homo sapiens, UniProt O00571); assay: Human DDX3 ATPase activity assay (luciferase-based luminescence); format: biochemical; conditions: DDX3 ATPase activity; read-out: Ki (μM), apparent equilibrium dissociation constant for the inhibitor to the target enzyme DDX3
# T1 construct: made in house; host or cells: E. coli
# T1 sequence (O00571 whole entry): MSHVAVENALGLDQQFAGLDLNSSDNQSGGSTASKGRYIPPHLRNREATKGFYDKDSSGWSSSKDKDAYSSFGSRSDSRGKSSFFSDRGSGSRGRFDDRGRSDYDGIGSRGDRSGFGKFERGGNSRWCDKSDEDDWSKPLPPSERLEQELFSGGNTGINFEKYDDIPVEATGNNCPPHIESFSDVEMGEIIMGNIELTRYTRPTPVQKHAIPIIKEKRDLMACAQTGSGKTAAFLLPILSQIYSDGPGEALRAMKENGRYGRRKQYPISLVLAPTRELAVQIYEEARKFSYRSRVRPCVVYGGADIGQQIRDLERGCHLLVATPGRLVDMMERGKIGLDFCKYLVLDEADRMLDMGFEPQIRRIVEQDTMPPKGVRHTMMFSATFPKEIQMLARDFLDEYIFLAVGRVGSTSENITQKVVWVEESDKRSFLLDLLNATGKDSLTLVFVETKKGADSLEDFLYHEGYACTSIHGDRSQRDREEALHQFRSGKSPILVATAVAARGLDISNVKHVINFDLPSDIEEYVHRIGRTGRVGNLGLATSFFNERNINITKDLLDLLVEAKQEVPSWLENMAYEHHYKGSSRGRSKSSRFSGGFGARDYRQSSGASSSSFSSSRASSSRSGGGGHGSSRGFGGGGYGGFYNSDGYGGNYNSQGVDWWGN
# [3] = Cell viability / cytotoxicity on HeLa cells; format: cell-based; conditions: human, HeLa cells (cervical cancer cell line); HeLa; Table 2 prints no unit; text gives μM; read-out: Cytotoxicity (CC50) HeLa, dose required to reduce 50% cell vitality
# Procedure: (§3) Cell viability in the presence of the compounds has been determined by standard MTT assays.
# as §2
# HeLa cells = assay: Cell viability / cytotoxicity on HeLa cells; format: cell-based; conditions: HeLa CC50 / antiviral EC50
# Procedure: as §3, §2
# PBMCs = assay: Cell viability / cytotoxicity on PBMCs; format: cell-based; conditions: PBMCs CC50 / antiviral EC50
# Excerpt: as §3
# [4] = Cell viability / cytotoxicity on PBMCs; format: cell-based; conditions: human; PBMCs; Table 2 prints no unit; read-out: Cytotoxicity (CC50) PBMCs, dose required to reduce 50% cell vitality
# Excerpt: as §3
# [5] = Cell viability / cytotoxicity on MOLT-4 cells; format: cell-based; conditions: human, MOLT-4 cells; MOLT-4; Table 2 prints no unit; read-out: Cytotoxicity (CC50) MOLT-4, dose required to reduce 50% cell vitality
# Excerpt: as §3
# MOLT-4 = assay: Cell viability / cytotoxicity on MOLT-4 cells; format: cell-based; conditions: MOLT-4 CC50 / antiviral EC50
# Excerpt: as §3
smiles,measurement,setting,value
"O=C(CCN1C(=O)/C(=C/c2cccc(F)c2)SC1=S)Nc1ccccc1O [Compound 35b, 3-((Z)-5-(3-Fluorobenzylidene)-4-oxo-2-thioxothiazolidin-3-yl)-N-(2-hydroxyphenyl) propanamide]",melting point,,210 to 211 °C
same,EC50,"HIV-1; 72 h, read-out: EC50, anti-HIV activity",7.5 µM
same,EC50,"HIV-1; read-out: Antiviral activity, dose required to reduce 50% viral proliferation (measured as viral RNA load)",7.5 ± 0.7 µM
same,"viral RNA, multiple rounds of replication","HIV-1; PBMC, wild type HIV-1, 5 days post infection, FE15 50 μM, FE66 (35b) 5 μM",significant reduction of viral RNA
same,EC50,"[1]; 48 hours, read-out: EC50 (μM) 48 hours, dose required to suppress 50% of cell viability",50 µM
same,EC50,"[1]; 72 hours, read-out: EC50 (μM) 72 hours, dose required to suppress 50% of cell viability",10 µM
same,"viral load (viral RNA copies), single-round replication",wild type HIV-1 strain,dose-dependent reduction of viral load
same,Ki,[2],0.3 µM
same,CC50,[3],50 ± 5 µM
same,"Selectivity index HeLa, CC50/EC50",HeLa cells,6.7
same,"Selectivity index PBMCs, CC50/EC50",PBMCs,6.7
same,CC50,[4],50 ± 5 µM
same,CC50,[5],50 ± 10 µM
same,"Selectivity index MOLT-4, CC50/EC50",MOLT-4,6.7
